According to patent EP0955294B1, “Imidazolyl-alkenoic acid” (SMITHKLINE BEECHAM CORPORATION, priority 1989, dated 1990):
Read-outs that look alike come from different tables or passages of the source.

Key:
[1] = test system: pressor response to exogenous angiotensin II; assay: inhibition of pressor response to angiotensin II in conscious rats; type: in vivo; details: Rattus norvegicus, dose producing 50% inhibition of the control response to angiotensin II, read-out: IC50 (the source's name)
Experimental: (§1) Angiotensin II antagonist activity of the compounds of Formula (I) is assessed by in vitro and in vivo methods. In vitro antagonist activity is determined by the ability of the compounds to compete with ^125I-angiotensin II for binding to vascular angiotensin It receptors and by their ability to antagonize the contractile response to angiotensin II in the isolated rabbit aorta. In vivo activity is evaluated by the efficacy of the compounds to inhibit the pressor response to exogenous angiotensin II in conscious rats and to lower blood pressure in a rat model of […] hypertension.
Rats are prepared with indwelling femoral arterial and venous catheters and a stomach tube (Gellai et al., Kidney Int. 15:419, 1979). Two to three days following surgery the rats are placed in a restrainer and blood pressure is continuously monitored from the arterial catheter with a pressure transducer and recorded on a polygraph. The change in mean arterial pressure in response to intravenous injections of […] angiotensin II is compared at various time points prior to and following the administration of the compounds intravenously or orally at doses of 0.1 to 300 mg/kg. The dose of compound needed to produce 50% inhibition of the control response to angiotensin II (IC50) is used to estimate the potency of the compounds.

[2] = test system: conscious rats made renin-dependent hypertensive; assay: antihypertensive activity in renal artery ligated (renin-dependent hypertensive) rats; type: in vivo; details: dose needed to reduce mean arterial pressure by 30 mm Hg
Experimental: as §1
The antihypertensive activity of the compounds is measured by their ability to reduce mean arterial pressure in conscious rats made renin-dependent hypertensive by ligation of the left renal artery (Cangiano et al., J. Pharmacol. Exp. Ther. 208:310, 1979). Renal artery ligated rats are prepared with indwelling catheters as described above. Seven to eight days following renal artery ligation, the time at which plasma renin levels are highest, the conscious rats are placed in restrainers and mean arterial pressure is continuously recorded prior to and following the administration of the compounds intravenously or orally. The dose of compound needed to reduce mean arterial pressure by 30 mm Hg (IC50) is used as an estimate of potency.

IC50 ([2]; i.v.): 1.80 mg/kg
SMILES: CCCCc1ncc(/C=C(\Cc2cccs2)C(=O)O)n1Cc1ccccc1Cl [Example 1, (E)-3-[2-n-Butyl-1-{(2-chlorophenyl)methyl}-1H-imidazol-5-yl]-2-(2-thienyl)methyl-2-propenoic Acid]
ED50 ([1]; iv, i.v.): 3.6 mg/kg
ED50 ([1]; po, orally): 44 mg/kg
ED (30 mm Hg) ([2]; Rattus norvegicus, po, orally, read-out: IC50): 8 mg/kg
